We go through nine compounds from patent EP0401517A1, “Substituted 2-alkynylphenols with anti-inflammatory action, a process for their preparation and pharmaceutical compositions thereof” (CAMILLO CORVI S.p.A., priority 1989, dated 1990).

Test [1] concerns cyclo-oxygenase. Kind of test: In vitro cyclo-oxygenase activity: malondialdehyde production in guinea pig lung homogenate incubated with arachidonic acid and cofactors. Format: biochemical. How it is done:
(§1) These new products are active in vitro as inhibitors of cyclo-oxygenase (malondialdehyde production test in guinea pig lung homogenates) and/or of the 5-lipo-oxygenase (A23187 stimulated rabbit leucocytes test).
The cyclooxygenase activity is determined according to the method of Luzzani et al. (Luzzani, F., et al. INT. J. TISS. REAC. X(2); 79-83, 1988), by monitoring the production of malondialdehyde in a guinea pig lung homogenate incubated in the presence of arachidonic acid and cofactors.
(§2) In Table I below the results of the comparisons of 8 inventive compounds with 3 prior art compounds are shown. In column "CO" the data concerning cyclo-oxygenase, and in column "5-LO" those concerning 5-lipo-oxygenase are shown.

Test [2] deals with T1, 5-lipo-oxygenase (Oryctolagus cuniculus, UniProt G1SNX0).
T1 construct: a preparation of calcium ionophore A23187 stimulated rabbit leukocites; endogenous in cells; host or cells: rabbit leukocytes
T1 sequence (G1SNX0 1-674): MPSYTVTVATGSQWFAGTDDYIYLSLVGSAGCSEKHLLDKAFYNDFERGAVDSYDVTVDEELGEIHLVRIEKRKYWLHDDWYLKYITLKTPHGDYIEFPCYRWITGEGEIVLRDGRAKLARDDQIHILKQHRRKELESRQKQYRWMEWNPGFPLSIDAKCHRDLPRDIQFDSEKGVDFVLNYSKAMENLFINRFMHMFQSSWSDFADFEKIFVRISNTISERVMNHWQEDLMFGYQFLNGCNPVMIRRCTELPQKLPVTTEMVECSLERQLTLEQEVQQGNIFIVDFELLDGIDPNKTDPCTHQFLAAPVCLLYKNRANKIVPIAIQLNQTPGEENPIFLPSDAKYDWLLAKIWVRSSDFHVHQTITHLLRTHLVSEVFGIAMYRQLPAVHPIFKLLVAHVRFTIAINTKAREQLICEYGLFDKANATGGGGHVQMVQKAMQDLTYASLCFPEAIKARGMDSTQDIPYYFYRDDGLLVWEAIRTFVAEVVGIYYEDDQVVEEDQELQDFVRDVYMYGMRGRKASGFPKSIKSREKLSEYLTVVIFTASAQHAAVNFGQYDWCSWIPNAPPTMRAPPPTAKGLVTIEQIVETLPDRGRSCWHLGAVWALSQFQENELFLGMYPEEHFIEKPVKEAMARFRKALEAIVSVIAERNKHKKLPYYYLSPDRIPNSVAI
The test is described as follows: In vitro 5-lipo-oxygenase activity: formation of leukotriene B4 from [14C] arachidonic acid in calcium ionophore A23187 stimulated rabbit leukocytes (radiometric T.L.C. assay). Format: cell-based. As to conditions: read-out: 5-LO (% of inhibition at 10 µM). On the procedure:
as §1
The formation of leukotriene B₄ from [¹⁴C] arachidonic acid in a preparation of calcium ionophore A23187 stimulated rabbit leukocites is measured by means of a slightly modified radiometric T.L.C.assay based on published procedures (Beetens, J.R. et al. BIOCHEM. PHARMACOL 35 (6); 883, 1986).
as §2

Broadly, the inhibition is the drop in the measured response relative to a control, in per cent. As for `COc1ccc(O)c(CC#Cc2ccccc2)c1` [CO/1828, 2-(3-Phenyl-2-propynyl)-4-metoxyphenol], the “CO (% of inhibition at 10 µM)” value in test [1] is 50%. Moreover, the inhibition at 10 µM in test [2] turned out to be 57%.
Consider `NC1=NN(c2cccc(C(F)(F)F)c2)CC1` [BW 755 c, reference compound], for which the “CO (% of inhibition at 10 µM)” value in test [1] is given as 30%. Also, the inhibition at 10 µM in test [2] came to 25%.
On to `Oc1cccc(CC#Cc2ccccc2)c1O` [CO:1841, 3-(3-Phenyl-2-propynyl)pyrocatechol], for which the “CO (% of inhibition at 10 µM)” value in test [1] stood at 26%. Besides, in test [2], the inhibition at 10 µM is 90%.
For `CC(Cc1ccc(O)c(O)c1)C(C)Cc1ccc(O)c(O)c1` (stereo not drawn) [NORDIHYDROGUAIARETIC ACID, reference compound], in that order: 5% and 92%.
Taken in the same sequence, the figures for `COc1ccc2c(c1)c(CC(=O)O)c(C)n2C(=O)c1ccc(Cl)cc1` [INDOMETHACIN, reference compound] were 98% and 0%.
On to `COc1ccc(O)c(C(C)C#Cc2ccccc2)c1` (stereo not drawn) [CO/1863, 2-(4-Phenyl-3-butyne-2-yl)-4-methoxyphenol], for which the “CO (% of inhibition at 10 µM)” value in test [1] came to 23%. In addition, the inhibition at 10 µM in test [2] worked out at 46%.
For `CCCCCCC#CCc1cc(OC)ccc1O` [CO/1837, 4-Methoxy-2-(2-nonynyl)phenol], in that order: 52% and 92%.
Taken in the same sequence, the figures for `CC(C#Cc1ccccc1)c1cc(OCc2ccccc2)ccc1O` (stereo not drawn) [CP/1864, 4-Benzyloxy-2-(4-phenyl-3-butyne-2-yl)phenol] were 0% and 68%.
Regarding `COc1cccc(CC#Cc2ccccc2)c1O` [CO/1826, 2-(3-Phenyl-2-propynyl)-6-methoxyphenol], in test [1], the “CO (% of inhibition at 10 µM)” value was determined as 66%. Moreover, the inhibition at 10 µM in test [2] is 52%.
